Source: US10987357B2, “Aerosolized fluoroquinolones and uses thereof” (Horizon Orphan, LLC, priority 2005, dated 2021)
Where two headings read alike, the source gives them in different places.

Legend:
[1] = system: Streptococcus pneumonia (Sp); conditions: cited from earlier work; for Sp MIC90: Table 7; for SP MIC90: Table 6
[2] = Rat pharmacokinetic model (IV vs microspray aerosol, intratracheal); type: in vivo, rats; conditions: 10 mg/kg; for AUC / AUC(0-inf) / half-life: rat; for AUC: epithelial lining fluid (ELF); for AUC(0-inf) / half-life: serum; for half-life: read-out: Serum t1/2 (converted)
Protocol: […] Blood samples are taken at various times over 3 hours to determine the plasma pharmacokinetic parameters. […] The plasma and tissue concentrations are determined by an HPLC method and the data are then fit using WinNonlin.

[3] = system: methicillin resistant Staphylococcus aureus (MRSA); conditions: cited from earlier work
Sa = conditions: Table 7; cited from earlier work
[4] = system: Pseudomonas aeruginosa (Pa); conditions: cited from earlier work
MSSA = conditions: Table 6; cited from earlier work
physchem = conditions: for Initial Solution pH / Initial Solution Appearance: 10 mg/mL in sterile water; for Initial Solution Appearance: room temperature
Protocol: A 2 to 20 mg sample of each antibiotic was weighed into sterile plastic tubes and brought up with a volume of sterile water to make a 10 mg/mL solution or suspension of the antibiotic. Samples were incubated for approximately 10 minutes at room temperature with occasional mixing, prior to further handling.
The insoluble solutions were titrated with 1N HCl to the point of visible solubility, and the pH of the solubilized solution determined.
After the pH adjustment, and following a further 10 minute incubation period with occasional mixing, the final appearance of the solutions was determined, just prior to the aerosol tolerability and taste test.

[5] = system: P. aeruginosa strain PAM 1723; assay: Mouse lung infection efficacy model; conditions: Pseudomonas aeruginosa, PAM1723, in Mus musculus
Protocol: The inoculum is adjusted to ca. 5×10^6 CFU/ml by correlation of absorbance at 600 nm with predetermined plate counts. […] On day 5, mice are infected by an intratracheal instillation of 0.05 ml of inoculum while under isoflurane anesthesia (5% isoflurane in oxygen running at 4 L/min). […] Mice are sacrificed 1 and 4 hours after treatment, their lungs removed, homogenized and plated to determine colony counts.

**Q.** For CCn1cc(C(=O)O)c(=O)c2cc(F)c(N3CCNCC3)cc21 [Norfloxacin], which “Sp MIC90” value [1] is on record?
**A.** Its value is 16 µg/mL.

**Q.** And the “F, % from Lung vs. IV” value ([2]; IT)?
**A.** The value was 100%.

**Q.** What about the AUC ([2]; inhaled or intranasal, IT) of the same compound?
**A.** Its AUC is 41.7 µg·h/mL.

**Q.** And the AUC ([2]; iv)?
**A.** The AUC was 3.27 µg·h/mL.

**Q.** What about the “MRSA MIC90” value ([3]; Table 7) of the same compound?
**A.** The value was over 4 µg/mL.

**Q.** What about the “Sa MIC90” value (Sa) of the same compound?
**A.** Its value is 1 µg/mL.

**Q.** What about the “Pa MIC90” value ([4]; Table 7) of the same compound?
**A.** Its value is 16 µg/mL.

**Q.** With Cc1c(N2C[C@@H](N)C3(CC3)C2)c(F)c(N)c2c(=O)c(C(=O)O)cn(C3CC3)c12 [Olamufloxacin] as the compound, how does the “Sp MIC90” value [1] read?
**A.** The value was 0.06 µg/mL.

**Q.** What about the “MRSA MIC90” value ([3]; Table 7) of the same compound?
**A.** The value was 2 µg/mL.

**Q.** And the “Sa MIC90” value (Sa)?
**A.** The value was 1 µg/mL.

**Q.** What about the “Pa MIC90” value ([4]; Table 7) of the same compound?
**A.** The value was 16 µg/mL.

**Q.** For C[C@H]1COc2c(C3(N)CC3)c(F)cc3c(=O)c(C(=O)O)cn1c23 [Pazufloxacin], which “Sp MIC90” value [1] is on record?
**A.** Its value is 4 µg/mL.

**Q.** What about the “MRSA MIC90” value ([3]; Table 7) of the same compound?
**A.** The value was over 16 µg/mL.

**Q.** What about the “Sa MIC90” value (Sa) of the same compound?
**A.** Its value is 0.5 µg/mL.

**Q.** And the “Pa MIC90” value ([4]; Table 7)?
**A.** The value was over 32 µg/mL.

**Q.** What does the source list for CCn1cc(C(=O)O)c(=O)c2cc(F)c(N3CCN(C)CC3)cc21 [Pefloxacin]?
**A.** MSSA MIC90 (MSSA): 2 µg/mL; SP MIC90 [1]: 32 µg/mL; MRSA MIC90 ([3]; Table 6): >32 µg/mL; Pa MIC90 ([4]; Table 6): >32 µg/mL

**Q.** Which “Sp MIC90” value [1] does the source give for Cc1oc(=O)oc1CN1CCN(c2cc3c(cc2F)c(=O)c(C(=O)O)c2n3C(C)S2)CC1 (stereo not shown) [Prulifloxacin] here?
**A.** The value was 1 µg/mL.

**Q.** What about the “MRSA MIC90” value ([3]; Table 7) of the same compound?
**A.** The value was 32 µg/mL.

**Q.** What about the “Sa MIC90” value (Sa) of the same compound?
**A.** The value was 0.25 µg/mL.

**Q.** What about the “Pa MIC90” value ([4]; Table 7) of the same compound?
**A.** Its value is 16 µg/mL.

**Q.** Which “Sp MIC90” value [1] does the source give for CN1CCN(c2c(F)cc3c(=O)c(C(=O)O)cn4c3c2SCC4)CC1 [Rufloxacin] here?
**A.** Its value is 32 µg/mL.

**Q.** And the “MRSA MIC90” value ([3]; Table 7)?
**A.** The value was 64 µg/mL.

**Q.** And the “Sa MIC90” value (Sa)?
**A.** Its value is 2 µg/mL.

**Q.** What about the “Pa MIC90” value ([4]; Table 7) of the same compound?
**A.** The value was 32 µg/mL.

**Q.** For O=C(O)c1cn(-c2ccc(F)cc2)c2cc(N3CCNCC3)c(F)cc2c1=O [Sarafloxacin], which “MRSA MIC90” value ([3]; Table 7) is on record?
**A.** The value was over 16 µg/mL.

**Q.** And the “Sa MIC90” value (Sa)?
**A.** Its value is 0.25 µg/mL.

**Q.** What about the “Pa MIC90” value ([4]; Table 7) of the same compound?
**A.** Its value is over 16 µg/mL.

**Q.** For N[C@@H]1CN(c2c(F)cc3c(=O)c(C(=O)O)cn([C@@H]4C[C@@H]4F)c3c2Cl)CC12CC2 [Sitafloxacin], which “Sp MIC90” value [1] is on record?
**A.** The value was 0.06 µg/mL.

**Q.** And the “MRSA MIC90” value ([3]; Table 7)?
**A.** The value was 4 µg/mL.

**Q.** What about the “Sa MIC90” value (Sa) of the same compound?
**A.** Its value is 0.125 µg/mL.

**Q.** And the “Pa MIC90” value ([4]; Table 7)?
**A.** The value was 8 µg/mL.

**Q.** With C[C@@H]1CN(c2c(F)c(N)c3c(=O)c(C(=O)O)cn(C4CC4)c3c2F)C[C@H](C)N1 [Sparfloxacin] as the compound, how does the “MSSA MIC90” value (MSSA) read?
**A.** Its value is 0.125 µg/mL.

**Q.** What about the “SP MIC90” value [1] of the same compound?
**A.** Its value is 0.5 µg/mL.

**Q.** What about the “Initial Solution pH” value (physchem) of the same compound?
**A.** Its value is 5.0.

**Q.** And the “Initial Solution Appearance” value (physchem)?
**A.** The value was “bright yellow, turbid, visible”.

**Q.** What about the “After pH Adjustment Appearance” value (physchem; 10 mg/mL, titrated with 1N HCl) of the same compound?
**A.** The value was “bright yellow, densely”.

**Q.** And the “After pH Adjustment pH” value (physchem; 10 mg/mL, titrated with 1N HCl)?
**A.** Its value is 1.5.

**Q.** What about the “pH of final solution” value (physchem; 10 mg/mL) of the same compound?
**A.** Its value is 1.5.

**Q.** What about the “solubility on titration with 1N HCl” value (physchem; pH 1.5) of the same compound?
**A.** Its value is “solubility was not reached by pH 1.5”.

**Q.** What about the “MRSA MIC90” value ([3]; Table 6) of the same compound?
**A.** Its value is 16 µg/mL.

**Q.** And the log reduction at 25 mg/kg ([5]; 1 h, read-out: DeltaLOG CPU 1 hr, route IT, dose 25 mg/kg, 1 hr post-drug administration)?
**A.** Its log reduction at 25 mg/kg is 1.56.

**Q.** What about the log reduction at 25 mg/kg ([5]; 4 h, read-out: DeltaLOG CPU 4 hr, route IT, dose 25 mg/kg, 4 hr post-drug administration) of the same compound?
**A.** The log reduction at 25 mg/kg was 0.81.

**Q.** What about the log reduction at 25 mg/kg ([5]; ip, 1 h, read-out: DeltaLOG CPU 1 hr, route IP, dose 25 mg/kg, 1 hr post-drug administration) of the same compound?
**A.** The log reduction at 25 mg/kg was 0.85.

**Q.** And the log reduction at 25 mg/kg ([5]; ip, 4 h, read-out: DeltaLOG CPU 4 hr, route IP, dose 25 mg/kg, 4 hr post-drug administration)?
**A.** The log reduction at 25 mg/kg was -0.09.

**Q.** And the “Pa MIC90” value ([4]; Table 6)?
**A.** The value was 32 µg/mL.

**Q.** With NC[C@H]1O[C@H](O[C@H]2[C@H](O)[C@@H](O[C@H]3O[C@H](CO)[C@@H](O)[C@H](N)[C@H]3O)[C@H](N)C[C@@H]2N)[C@H](N)C[C@@H]1O [Tobramycin] as the compound, how does the “F, % from Lung vs. IV” value ([2]; IT) read?
**A.** The value was 81%.

**Q.** And the AUC ([2]; inhaled or intranasal, IT)?
**A.** Its AUC is 5150 µg·h/mL.

**Q.** And the AUC ([2]; iv)?
**A.** Its AUC is 27.6 µg·h/mL.

**Q.** And the AUC(0-inf) ([2]; inhaled or intranasal, IT)?
**A.** The AUC(0-inf) was 13.8 µg·h/mL.

**Q.** And the half-life ([2]; inhaled or intranasal, IT)?
**A.** Its half-life is 60 min.

**Q.** What about the AUC(0-inf) ([2]; iv) of the same compound?
**A.** The AUC(0-inf) was 15.7 µg·h/mL.

**Q.** And the half-life ([2]; iv)?
**A.** The half-life was 30 min.

**Q.** What about the log reduction at 5 mg/kg ([5]; 1 h, read-out: DeltaLOG CPU 1 hr, route IT, dose 5 mg/kg, 1 hr post-drug administration) of the same compound?
**A.** Its log reduction at 5 mg/kg is 1.59.

**Q.** And the log reduction at 5 mg/kg ([5]; 4 h, read-out: DeltaLOG CPU 4 hr, route IT, dose 5 mg/kg, 4 hr post-drug administration)?
**A.** The log reduction at 5 mg/kg was 0.94.

**Q.** And the log reduction at 5 mg/kg ([5]; ip, 1 h, read-out: DeltaLOG CPU 1 hr, route IP, dose 5 mg/kg, 1 hr post-drug administration)?
**A.** The log reduction at 5 mg/kg was 0.7.

**Q.** What about the log reduction at 5 mg/kg ([5]; ip, 4 h, read-out: DeltaLOG CPU 4 hr, route IP, dose 5 mg/kg, 4 hr post-drug administration) of the same compound?
**A.** The log reduction at 5 mg/kg was -0.29.

**Q.** With N[C@@H]1[C@H]2CN(c3nc4c(cc3F)c(=O)c(C(=O)O)cn4-c3ccc(F)cc3F)C[C@@H]12 [Trovafloxacin] as the compound, how does the “MSSA MIC90” value (MSSA) read?
**A.** The value was 0.06 µg/mL.

**Q.** And the “SP MIC90” value [1]?
**A.** The value was 0.25 µg/mL.

**Q.** What about the “Initial Solution pH” value (physchem) of the same compound?
**A.** The value was 4.2.

**Q.** What about the “Initial Solution Appearance” value (physchem) of the same compound?
**A.** The value was “colorless, slightly cloudy, no”.

**Q.** And the solubility at 10 min (physchem; aqueous buffer, thermodynamic from solid)?
**A.** The solubility at 10 min was over 10000 µg/mL.

**Q.** What about the “pH of final solution” value (physchem; 10 mg/mL) of the same compound?
**A.** Its value is 4.2.

**Q.** And the “MRSA MIC90” value ([3]; Table 6)?
**A.** Its value is 8 µg/mL.

**Q.** And the “Pa MIC90” value ([4]; Table 6)?
**A.** The value was over 32 µg/mL.
